According to publication PMC4138103 (PLoS ONE, 2014):

System: Sprague-Dawley rats
Experiment: Clinical chemistry
Assay type: in vivo, Rattus norvegicus
Set-up: key to Cholesterol, Dose response / Triglyserides, Dose response / Glucose, Dose response / Albumin, Dose response / K, Dose response / Total bilirubin, Dose response: D: significant dose response (for results, see Table 2); T: significant trend
Conditions: for Alkaline phosphatase, CED / Alkaline phosphatase, CED-L / Chlolesterol, CED / Chlolesterol, CED-L / Glucose, CED / Glucose, CED-L / Potassium, CED / Potassium, CED-L / Total Bilirubin, CED / Total Bilirubin, CED-L / Albumin, CED / Albumin, CED-L / Total protein, CED / Total protein, CED-L / Triglycerides, CED / Triglycerides, CED-L: total dose based
Method: Spectrophotometric methods were used for the determination of serum total calcium, cholesterol, creatinine, glucose, triglycerides and urea. Serum sodium, potassium and chloride concentrations were measured directly by ion selective electrodes. The analyses were performed by a clinical chemistry analyzer (Konelab 30i, ThermoFisher Scientific, Vantaa, Finland). Plasma lactate dehydrogenase (LD) activity was measured according to the recommendations of the International Federation of Clinical Chemistry (IFCC 1994/I) using Konelab 60i clinical chemistry analyzer. Methods and results for liver related parameters (serum alanine aminotransferase [ALT] activity, alkaline phosphatase [ALP] activity, albumin, total protein and total bilirubin are reported separately.
Data were also analyzed using the BMD method, which is based on dose-response modeling of the full data set using a nested family of exponential and Hill models. The analyses were done on data of males and females combined, using sex as a covariate. […] In that case, different Critical Effect Doses (CEDs) and CEDs at the lowest bound of the confidence interval (CED-L) were generated for each sex. If no difference between sexes is detected, a CED and CED-Ls for the combined data is generated. However, this was also done if the curve fits are close, and separate analyses for males and females were then performed manually. CEDs and CED-Ls were calculated at the predefined Critical Effect Size (CES) of 5% (EFSA standard) or 10%.

[1] = females, total dose 1700 mg/kg bw
[2] = females, adipose tissue concentration based
[3] = males, total dose 0-1700 mg/kg bw
[4] = males, total dose 1000 mg/kg bw
[5] = males, total dose 1700 mg/kg bw
[6] = males, adipose tissue concentration based

Clc1cc(Cl)c(-c2cc(Cl)c(Cl)c(Cl)c2Cl)cc1Cl [PCB 180, 2,2′,3′,4,4′,5,5′-heptachlorobiphenyl]
Creatinine [1]: 52.5 µmol/L
Glucose [1]: 12.4 mmol/L
K [1]: 5.30 mmol/L
Na [1]: 143.2 mmol/L
Total Ca [1]: 3.49 mmol/L
Total bilirubin [1]: 1.37 µmol/L
Triglyserides [1]: 0.88 mmol/L
Urea [1]: 10.0 mmol/L
Alkaline phosphatase, CED (females, CES 5%): 67.6 mg/kg bw
Alkaline phosphatase, CED-L (females, CES 5%): 30.1 mg/kg bw
Chlolesterol, CED (females, CES 5%): 192 mg/kg bw
Chlolesterol, CED-L (females, CES 5%): 167 mg/kg bw
Glucose, CED (females, CES 5%): 677 mg/kg bw
Glucose, CED-L (females, CES 5%): 408 mg/kg bw
Potassium, CED (females, CES 5%): 1210 mg/kg bw
Potassium, CED-L (females, CES 5%): 786 mg/kg bw
Total Bilirubin, CED (females, CES 5%): 4.12 mg/kg bw
Total Bilirubin, CED-L (females, CES 5%): 0.67 mg/kg bw
Alkaline phosphatase, CED (females, CES 10%): 154 mg/kg bw
Alkaline phosphatase, CED-L (females, CES 10%): 68.5 mg/kg bw
Chlolesterol, CED (females, CES 10%): 375 mg/kg bw
Chlolesterol, CED-L (females, CES 10%): 326 mg/kg bw
Glucose, CED (females, CES 10%): 1390 mg/kg bw
Glucose, CED-L (females, CES 10%): 839 mg/kg bw
Potassium, CED (females, CES 10%): 2490 mg/kg bw
Potassium, CED-L (females, CES 10%): 1614 mg/kg bw
Total Bilirubin, CED (females, CES 10%): 10.3 mg/kg bw
Total Bilirubin, CED-L (females, CES 10%): 1.63 mg/kg bw
Serum ALP activity, CED [2]: 308 µg/g lipid
Serum cholesterol, CED [2]: 640 µg/g lipid
Albumin, Dose response [3]: T
Cholesterol, Dose response [3]: T
Glucose, Dose response [3]: T
Triglyserides, Dose response [3]: T
Albumin (males, total dose 3 mg/kg bw): 32.6 g/L
Cholesterol (males, total dose 3 mg/kg bw): 2.72 mmol/L
Cl (males, total dose 3 mg/kg bw): 96.9 mmol/L
Creatinine (males, total dose 3 mg/kg bw): 54.2 µmol/L
Glucose (males, total dose 3 mg/kg bw): 18.9 mmol/L
K (males, total dose 3 mg/kg bw): 5.76 mmol/L
Na (males, total dose 3 mg/kg bw): 143.1 mmol/L
Total Ca (males, total dose 3 mg/kg bw): 3.43 mmol/L
Total bilirubin (males, total dose 3 mg/kg bw): 2.02 µmol/L
Triglyserides (males, total dose 3 mg/kg bw): 0.84 mmol/L
Urea (males, total dose 3 mg/kg bw): 9.0 mmol/L
Albumin (males, total dose 10 mg/kg bw): 32.9 g/L
Cholesterol (males, total dose 10 mg/kg bw): 2.84 mmol/L
Cl (males, total dose 10 mg/kg bw): 96.8 mmol/L
Creatinine (males, total dose 10 mg/kg bw): 51.5 µmol/L
Glucose (males, total dose 10 mg/kg bw): 14.9 mmol/L
K (males, total dose 10 mg/kg bw): 6.12 mmol/L
Na (males, total dose 10 mg/kg bw): 143.0 mmol/L
Total Ca (males, total dose 10 mg/kg bw): 3.41 mmol/L
Total bilirubin (males, total dose 10 mg/kg bw): 1.58 µmol/L
Triglyserides (males, total dose 10 mg/kg bw): 0.88 mmol/L
Urea (males, total dose 10 mg/kg bw): 8.2 mmol/L
Albumin (males, total dose 30 mg/kg bw): 32.8 g/L
Cholesterol (males, total dose 30 mg/kg bw): 2.74 mmol/L
Cl (males, total dose 30 mg/kg bw): 96.0 mmol/L
Creatinine (males, total dose 30 mg/kg bw): 53.8 µmol/L
Glucose (males, total dose 30 mg/kg bw): 18.6 mmol/L
K (males, total dose 30 mg/kg bw): 5.93 mmol/L
Na (males, total dose 30 mg/kg bw): 142.9 mmol/L
Total Ca (males, total dose 30 mg/kg bw): 3.44 mmol/L
Total bilirubin (males, total dose 30 mg/kg bw): 1.46 µmol/L
Triglyserides (males, total dose 30 mg/kg bw): 0.65 mmol/L
Urea (males, total dose 30 mg/kg bw): 9.3 mmol/L
Albumin (males, total dose 100 mg/kg bw): 33.1 g/L
Cholesterol (males, total dose 100 mg/kg bw): 3.56 mmol/L
Cl (males, total dose 100 mg/kg bw): 96.3 mmol/L
Creatinine (males, total dose 100 mg/kg bw): 53.4 µmol/L
Glucose (males, total dose 100 mg/kg bw): 17.8 mmol/L
K (males, total dose 100 mg/kg bw): 5.74 mmol/L
Na (males, total dose 100 mg/kg bw): 143.0 mmol/L
Total Ca (males, total dose 100 mg/kg bw): 3.58 mmol/L
Total bilirubin (males, total dose 100 mg/kg bw): 1.54 µmol/L
Triglyserides (males, total dose 100 mg/kg bw): 0.34 mmol/L
Urea (males, total dose 100 mg/kg bw): 9.2 mmol/L
Albumin (males, total dose 300 mg/kg bw): 32.5 g/L
Cholesterol (males, total dose 300 mg/kg bw): 3.44 mmol/L
Cl (males, total dose 300 mg/kg bw): 96.3 mmol/L
Creatinine (males, total dose 300 mg/kg bw): 52.6 µmol/L
Glucose (males, total dose 300 mg/kg bw): 17.7 mmol/L
K (males, total dose 300 mg/kg bw): 5.73 mmol/L
Na (males, total dose 300 mg/kg bw): 142.7 mmol/L
Total Ca (males, total dose 300 mg/kg bw): 3.46 mmol/L
Total bilirubin (males, total dose 300 mg/kg bw): 1.73 µmol/L
Triglyserides (males, total dose 300 mg/kg bw): 0.36 mmol/L
Urea (males, total dose 300 mg/kg bw): 9.0 mmol/L
Albumin [4]: 34.2 g/L
Cholesterol [4]: 4.35 mmol/L
Cl [4]: 95.7 mmol/L
Creatinine [4]: 53.8 µmol/L
Glucose [4]: 11.8 mmol/L
K [4]: 6.12 mmol/L
Na [4]: 142.6 mmol/L
Total Ca [4]: 3.45 mmol/L
Total bilirubin [4]: 1.84 µmol/L
Triglyserides [4]: 0.32 mmol/L
Urea [4]: 9.9 mmol/L
Albumin [5]: 34.4 g/L
Cholesterol [5]: 5.15 mmol/L
Cl [5]: 97.7 mmol/L
Creatinine [5]: 55.4 µmol/L
Glucose [5]: 12.7 mmol/L
K [5]: 5.89 mmol/L
Na [5]: 143.4 mmol/L
Total Ca [5]: 3.53 mmol/L
Total bilirubin [5]: 1.87 µmol/L
Triglyserides [5]: 0.44 mmol/L
Urea [5]: 9.1 mmol/L
Albumin, CED (males, CES 5%): 1550 mg/kg bw
Albumin, CED-L (males, CES 5%): 1090 mg/kg bw
Alkaline phosphatase, CED (males, CES 5%): 542 mg/kg bw
Alkaline phosphatase, CED-L (males, CES 5%): 327 mg/kg bw
Chlolesterol, CED (males, CES 5%): 38.3 mg/kg bw
Chlolesterol, CED-L (males, CES 5%): 19.5 mg/kg bw
Glucose, CED (males, CES 5%): 198 mg/kg bw
Glucose, CED-L (males, CES 5%): 146 mg/kg bw
Total protein, CED (males, CES 5%): 255 mg/kg bw
Total protein, CED-L (males, CES 5%): 134 mg/kg bw
Triglycerides, CED (males, CES 5%): 3.31 mg/kg bw
Triglycerides, CED-L (males, CES 5%): 1.90 mg/kg bw
Albumin, CED (males, CES 10%): 3040 mg/kg bw
Albumin, CED-L (males, CES 10%): 2130 mg/kg bw
Alkaline phosphatase, CED (males, CES 10%): 1110 mg/kg bw
Alkaline phosphatase, CED-L (males, CES 10%): 672 mg/kg bw
Chlolesterol, CED (males, CES 10%): 79.0 mg/kg bw
Chlolesterol, CED-L (males, CES 10%): 40.4 mg/kg bw
Glucose, CED (males, CES 10%): 408 mg/kg bw
Glucose, CED-L (males, CES 10%): 300 mg/kg bw
Total protein, CED (males, CES 10%): 702 mg/kg bw
Total protein, CED-L (males, CES 10%): 379 mg/kg bw
Triglycerides, CED (males, CES 10%): 6.92 mg/kg bw
Triglycerides, CED-L (males, CES 10%): 3.97 mg/kg bw
Serum chlolesterol, CED-L [6]: 91400 ng/g lipid
Serum cholesterol, CED [6]: 177 µg/g lipid
Serum total protein, CED [6]: 1080 µg/g lipid
Serum triglyceride, CED [6]: 12.5 µg/g lipid
Serum triglycerids, CED-L [6]: 7260 ng/g lipid
